Literature values in US20150320096A1, “Dietary Supplement” (MC Corp., priority 2013, published 2015).

Experiments:
[1] = oral administration
[2] = oral
glut-4 transporters = conditions: muscle tissue

For C/C1=C2/[N-][C@H]([C@H](CC(N)=O)[C@@]2(C)CCC(=O)NC[C@@H](C)OP(=O)([O-])O[C@H]2[C@@H](O)[C@@H](n3cnc4cc(C)c(C)cc43)O[C@@H]2CO)[C@]2(C)N=C(/C(C)=C3N=C(/C=C4N=C1[C@@H](CCC(N)=O)C\4(C)C)[C@@H](CCC(N)=O)[C@]\3(C)CC(N)=O)[C@@H](CCC(N)=O)[C@]2(C)CC(N)=O.[CH3-].[Co+3] [Methylcobalamin], the “burning sensations, numbness, loss of sensation, and muscle cramps” value [1] is listed as “subjective improvement” and the “ingested dose absorbed by diffusion process” value [2] is listed as “approximately 1%”.
In the case of O=C(O)CCCCC1CCSS1 (stereo not drawn) [ALA, Alpha-Lipoic Acid], the “increase in the number of glut-4 transporters on the outside of the muscle cells” value (glut-4 transporters) is given as at most 50%.
In the case of COC1=C(OC)C(=O)C(C/C=C(\C)CC/C=C(\C)CC/C=C(\C)CC/C=C(\C)CC/C=C(\C)CC/C=C(\C)CC/C=C(\C)CC/C=C(\C)CC/C=C(\C)CCC=C(C)C)=C(C)C1=O [coenzyme Q10, Coenzyme Q10], the blood glucose levels (dietary supplementation) is listed as “significantly reduce”, the “hemoglobin A1C (HbA1C)” value (dietary supplementation) is listed as “lower” and the “increase of plasma coenzyme Q10” value (dietary supplementation, patients with diabetes) is listed as “at least 3 fold”. For the same compound, the blood pressure (patients with diabetes) was “significantly lowered” and the insulin requirements (patients with diabetes) was “reduce”.
